According to PMC12250965, “Design and Synthesis of Sulfonium and Selenonium Derivatives Bearing 3′,5′-O-Benzylidene Acetal Side Chain Structure as Potent α-Glucosidase Inhibitors” (Molecules, 2025):
Where two headings read alike, the source gives them in different places.

Columns and labels:
rat intestinal maltase = experiment: In vitro α-glucosidase inhibition assay, rat intestinal maltase; format: biochemical; conditions: rat small intestinal brush border membrane vesicles; maltose substrate; mean ± SD (n = 3); read-out: IC50 against maltase
Method: (§1) The testing method previously described was modified and used. Thus, rat small intestinal brush border membrane vesicles were first prepared, and its suspension in 0.1 M maleate buffer (pH = 6.0) was used as small intestinal α-glucosidases of maltase and sucrase. A test compound was dissolved in dimethylsulfoxide (DMSO), and the resulting solution was diluted with 0.1 M maleate buffer to prepare the test compound solution (concentration of DMSO: 10%). The substrate solution in maleate buffer ([…], 50 μL), a test compound solution (25 μL), and the enzyme solution (25 μL) were mixed and incubated at 37 °C for 30 min. After incubation, the solution was immediately heated by boiling water for 2 min to stop the reaction, and the solution was mixed with water (150 μL). Glucose concentration was determined by the glucose-oxidase method. […] The IC50 value was determined graphically by a plot of percent inhibition versus log of the test compound.

rat intestinal sucrase = target: T1, rat intestinal sucrase (Rattus norvegicus, UniProt P23739); experiment: In vitro α-glucosidase inhibition assay, rat intestinal sucrase; format: biochemical
T1 construct: rat small intestinal brush border membrane vesicles were first prepared; from tissue; host or cells: rat small intestine, brush border membrane vesicles
T1 sequence (P23739 whole entry): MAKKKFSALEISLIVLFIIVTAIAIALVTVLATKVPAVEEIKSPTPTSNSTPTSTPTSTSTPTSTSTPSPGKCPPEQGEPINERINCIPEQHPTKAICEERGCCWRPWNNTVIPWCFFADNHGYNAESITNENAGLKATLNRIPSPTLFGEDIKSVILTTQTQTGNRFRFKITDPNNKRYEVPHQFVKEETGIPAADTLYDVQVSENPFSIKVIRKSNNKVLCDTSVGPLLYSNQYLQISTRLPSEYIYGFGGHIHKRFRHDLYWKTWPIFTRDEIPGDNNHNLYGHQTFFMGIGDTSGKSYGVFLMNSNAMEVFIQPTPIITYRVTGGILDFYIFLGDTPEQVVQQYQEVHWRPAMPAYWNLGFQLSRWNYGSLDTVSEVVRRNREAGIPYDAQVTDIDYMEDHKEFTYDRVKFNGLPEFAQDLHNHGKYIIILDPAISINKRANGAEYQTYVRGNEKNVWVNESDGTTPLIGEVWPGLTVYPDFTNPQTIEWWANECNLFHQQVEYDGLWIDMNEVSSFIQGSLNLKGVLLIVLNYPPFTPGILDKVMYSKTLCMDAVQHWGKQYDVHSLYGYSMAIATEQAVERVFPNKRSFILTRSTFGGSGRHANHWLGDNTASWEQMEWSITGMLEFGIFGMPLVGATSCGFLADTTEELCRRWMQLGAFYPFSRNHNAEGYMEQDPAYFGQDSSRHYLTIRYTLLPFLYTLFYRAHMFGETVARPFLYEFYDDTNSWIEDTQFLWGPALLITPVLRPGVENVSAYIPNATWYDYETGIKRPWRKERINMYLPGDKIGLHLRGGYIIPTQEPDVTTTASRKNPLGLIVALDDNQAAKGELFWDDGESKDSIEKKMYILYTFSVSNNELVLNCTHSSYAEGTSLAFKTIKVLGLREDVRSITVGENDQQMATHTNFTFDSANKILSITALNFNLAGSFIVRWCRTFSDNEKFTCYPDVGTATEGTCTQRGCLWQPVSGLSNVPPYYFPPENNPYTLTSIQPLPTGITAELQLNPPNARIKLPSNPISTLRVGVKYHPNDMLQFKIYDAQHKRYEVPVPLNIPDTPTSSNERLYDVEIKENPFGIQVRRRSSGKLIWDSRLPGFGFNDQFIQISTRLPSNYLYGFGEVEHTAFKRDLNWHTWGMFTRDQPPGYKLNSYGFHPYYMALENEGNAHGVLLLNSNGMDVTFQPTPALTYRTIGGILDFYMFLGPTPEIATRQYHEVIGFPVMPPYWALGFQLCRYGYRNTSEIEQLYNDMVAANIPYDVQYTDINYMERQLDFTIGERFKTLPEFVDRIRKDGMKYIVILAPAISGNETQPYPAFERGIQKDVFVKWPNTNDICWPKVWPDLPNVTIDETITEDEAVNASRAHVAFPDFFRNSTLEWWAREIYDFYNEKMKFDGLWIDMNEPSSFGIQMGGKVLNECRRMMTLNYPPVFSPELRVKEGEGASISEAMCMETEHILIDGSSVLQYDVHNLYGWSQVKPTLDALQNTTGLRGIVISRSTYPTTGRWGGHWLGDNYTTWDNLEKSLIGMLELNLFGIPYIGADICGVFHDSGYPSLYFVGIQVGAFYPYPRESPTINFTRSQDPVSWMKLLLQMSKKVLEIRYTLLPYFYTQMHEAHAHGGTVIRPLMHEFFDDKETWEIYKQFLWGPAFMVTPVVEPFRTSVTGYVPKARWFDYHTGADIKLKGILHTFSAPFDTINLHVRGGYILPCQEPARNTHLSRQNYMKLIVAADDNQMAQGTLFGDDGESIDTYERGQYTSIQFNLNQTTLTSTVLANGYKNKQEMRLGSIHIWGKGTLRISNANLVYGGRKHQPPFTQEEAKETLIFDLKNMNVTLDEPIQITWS
Method: as §1

[1] = rat small intestinal brush border membrane vesicles, sucrose substrate, mean ± SD (n = 3), read-out: IC50 against sucrase

Row | IC50 (rat intestinal maltase) [nM] | IC50 (rat intestinal sucrase; [1]) [nM] | Structure (SMILES) | IC50 (rat intestinal sucrase) [nM]
1 | 750 ± 80 | 1500 ± 210 | O=[N+]([O-])c1ccc(F)cc1C1OCC(O)C(C(O)C[S+]2CC(O)C(O)C2CO)O1 [19j, 1,4-Dideoxy-1,4-[(R)-(5-deoxy-1,3-O-(5-fluoro-2-nitrobenzylidene)-D-arabinitol-5-yl)episulfoniumylidene]-D-arabinitol chloride] | –
2 | 1000 ± 50 | 700 ± 130 | OCC1C(O)C(O)C[S+]1CC(O)C1OC(c2cccc(F)c2Cl)OCC1O [19d, 1,4-Dideoxy-1,4-[(R)-(5-deoxy-1,3-O-(2-chloro-3-fluorobenzylidene)-D-arabinitol-5-yl)episulfoniumylidene]-D-arabinitol chloride] | –
3 | 550 ± 50 | 800 ± 120 | OCC1C(O)C(O)C[S+]1CC(O)C1OC(c2cc(Cl)ccc2Cl)OCC1O [19c, 1,4-Dideoxy-1,4-[(R)-(5-deoxy-1,3-O-(2,5-dichlorobenzylidene)-D-arabinitol-5-yl)episulfoniumylidene]-D-arabinitol chloride] | –
4 | 3100 ± 660 | 3300 ± 280 | OCC1C(O)C(O)C[S+]1CC(O)C1OC(c2ccccc2I)OCC1O [19o, 1,4-Dideoxy-1,4-[(R)-(5-deoxy-1,3-O-(o-iodobenzylidene)-D-arabinitol-5-yl)episulfoniumylidene]-D-arabinitol chloride] | –
5 | 5000 ± 390 | 4600 ± 90 | OCC1C(O)C(O)C[S+]1CC(O)C1OC(c2ccc(Cl)c(Cl)c2)OCC1O [19f, 1,4-Dideoxy-1,4-[(R)-(5-deoxy-1,3-O-(3,4-dichlorobenzylidene)-D-arabinitol-5-yl)episulfoniumylidene]-D-arabinitol chloride] | –
6 | 850 ± 280 | 1400 ± 330 | OCC1C(O)C(O)C[S+]1CC(O)C1OC(c2cc(F)cc(Cl)c2)OCC1O [19h, 1,4-Dideoxy-1,4-[(R)-(5-deoxy-1,3-O-(3-chloro-5-fluorobenzylidene)-D-arabinitol5-yl)episulfoniumylidene]-D-arabinitol chloride] | –
7 | 500 ± 80 | 1600 ± 430 | OCC1C(O)C(O)C[S+]1CC(O)C1OC(c2cccc(Cl)c2Cl)OCC1O [19a, 1,4-Dideoxy-1,4-[(R)-(5-deoxy-1,3-O-(2,3-dichlorobenzylidene)-D-arabinitol-5-yl)episulfoniumylidene]-D-arabinitol chloride] | –
8 | 880 ± 40 | 900 ± 50 | N#Cc1ccccc1C1OCC(O)C(C(O)C[S+]2CC(O)C(O)C2CO)O1 [19p, 1,4-Dideoxy-1,4-[(R)-(5-deoxy-1,3-O-(o-cyanobenzyliden)-D-arabinitol-5-yl)episulfoniumylidene]-D-arabinitol chloride] | –
9 | 1900 ± 80 | 1100 ± 20 | OCC1C(O)C(O)C[S+]1CC(O)C1OC(c2ccccc2Br)OCC1O [19k, 1,4-Dideoxy-1,4-[(R)-(5-deoxy-1,3-O-(o-bromobenzylidene)-D-arabinitol-5-yl)episulfoniumylidene]-D-arabinitol chloride] | –
10 | 2000 ± 80 | 1200 ± 230 | OCC1C(O)C(O)C[S+]1CC(O)C1OC(c2ccc(Cl)cc2Cl)OCC1O [19b, 1,4-Dideoxy-1,4-[(R)-(5-deoxy-1,3-O-(2,4-dichlorobenzylidene)-D-arabinitol-5-yl)episulfoniumylidene]-D-arabinitol chloride] | –
11 | 9700 ± 740 | 7900 ± 1600 | OCC1C(O)C(O)C[S+]1CC(O)C1OC(c2cccc(Br)c2)OCC1O [19l, 1,4-Dideoxy-1,4-[(R)-(5-deoxy-1,3-O-(m-bromobenzylidene)-D-arabinitol-5-yl)episulfoniumylidene]-D-arabinitol chloride] | –
12 | 4100 ± 80 | 3500 ± 60 | OCC1C(O)C(O)C[S+]1CC(O)C1OC(c2ccc(Br)cc2)OCC1O [19m, 1,4-Dideoxy-1,4-[(R)-(5-deoxy-1,3-O-(p-bromobenzylidene)-D-arabinitol-5-yl)episulfoniumylidene]-D-arabinitol chloride] | –

Row | Structure (SMILES) | IC50 (rat intestinal maltase) [nM] | IC50 (rat intestinal sucrase; [1]) [nM] | IC50 (rat intestinal sucrase) [nM]
13 | O=[N+]([O-])c1ccc(F)cc1C1OC[C@@H](O)[C@@H]([C@H](O)C[Se@@+]2C[C@@H](O)[C@H](O)[C@H]2CO)O1 (stereo partly drawn) [20j, (1S,2R,3S,4S)-1-((2S)-2-((4S,5R)-2-(5-Fluoro-2-nitrophenyl)-5-hydroxy-1,3-dioxan-4-yl)-2-hydroxyethyl)-3,4-dihydroxy-2-(hydroxymethyl)tetrahydro-1H-selenophen-1-ium chloride] | 330 ± 80 | – | 90 ± 30
14 | OC[C@@H]1[C@@H](O)[C@H](O)C[Se@@+]1C[C@@H](O)[C@H]1OC(c2cccc3ccccc23)OC[C@H]1O (stereo partly drawn) [20q, (1S,2R,3S,4S)-3,4-dihydroxy-1-((2S)-2-hydroxy-2-((4S,5R)-5-hydroxy-2-(naphthalen-1-yl)-1,3-dioxan-4-yl)ethyl)-2-(hydroxymethyl)tetrahydro-1H-selenophen-1-ium chloride] | 920 ± 230 | – | 680 ± 140
15 | OC[C@@H]1[C@@H](O)[C@H](O)C[Se@@+]1C[C@@H](O)[C@H]1OC(c2ccccc2I)OC[C@H]1O (stereo partly drawn) [20o, (1S,2R,3S,4S)-3,4-Dihydroxy-1-((2S)-2-hydroxy-2-((4S,5R)-5-hydroxy-2-(2-iodophenyl)-1,3-dioxan-4-yl)ethyl)-2-(hydroxymethyl)tetrahydro-1H-selenophen-1-ium chloride] | 360 ± 70 | – | 300 ± 110
16 | OC[C@@H]1[C@@H](O)[C@H](O)C[Se@+]1C[C@@H](O)[C@H]1OC(c2ccccc2F)OC[C@H]1O (stereo partly drawn) [20n, (1S,2R,3S,4S)-1-((2S)-2-((4S,5R)-2-(2-Fluorophenyl)-5-hydroxy-1,3-dioxan-4-yl)-2-hydroxyethyl)-3,4-dihydroxy-2-(hydroxymethyl)tetrahydro-1H-selenophen-1-ium chloride] | 3750 ± 580 | – | 200 ± 60
17 | N#Cc1ccccc1C1OC[C@@H](O)[C@@H]([C@H](O)C[Se@@+]2C[C@@H](O)[C@H](O)[C@H]2CO)O1 (stereo partly drawn) [20p, (1S,2R,3S,4S)-1-((2S)-2-((4S,5R)-2-(2-Cyanophenyl)-5-hydroxy-1,3-dioxan-4-yl)-2-hydroxyethyl)-3,4-dihydroxy-2-(hydroxymethyl)tetrahydro-1H-selenophen-1-ium chloride] | 820 ± 210 | – | 370 ± 50
18 | OC[C@@H]1[C@@H](O)[C@H](O)C[Se@+]1C[C@@H](O)[C@H]1OC(c2cccc(F)c2Cl)OC[C@H]1O (stereo partly drawn) [20d, (1S,2R,3S,4S)-1-((2S)-2-((4S,5R)-2-(2-Chloro-3-fluorophenyl)-5-hydroxy-1,3-dioxan-4-yl)-2-hydroxyethyl)-3,4-dihydroxy-2-(hydroxymethyl)tetrahydro-1H-selenophen-1-ium chloride] | 620 ± 70 | – | 870 ± 230
19 | OC[C@@H]1[C@@H](O)[C@H](O)C[Se@+]1C[C@@H](O)[C@H]1OC(c2ccc(Cl)c(Cl)c2)OC[C@H]1O (stereo partly drawn) [20f, (1S,2R,3S,4S)-1-((2S)-2-((4S,5R)-2-(3,4-Dichlorophenyl)-5-hydroxy-1,3-dioxan-4-yl)-2-hydroxyethyl)-3,4-dihydroxy-2-(hydroxymethyl)tetrahydro-1H-selenophen-1-ium chloride] | 470 ± 110 | – | 330 ± 40
20 | OC[C@@H]1[C@@H](O)[C@H](O)C[Se@+]1C[C@@H](O)[C@H]1OC(c2cc(Cl)cc(Cl)c2)OC[C@H]1O (stereo partly drawn) [20g, (1S,2R,3S,4S)-1-((2S)-2-((4S,5R)-2-(3,5-Dichlorophenyl)-5-hydroxy-1,3–dioxan-4-yl)-2-hydroxyethyl)-3,4-dihydroxy-2-(hydroxymethyl)tetrahydro-1H-selenophen-1-ium Chloride] | 710 ± 210 | – | 220 ± 50
21 | OC[C@@H]1[C@@H](O)[C@H](O)C[Se@+]1C[C@@H](O)[C@H]1OC(c2cc(F)ccc2Cl)OC[C@H]1O (stereo partly drawn) [20e, (1S,2R,3S,4S)-1-((2S)-2-((4S,5R)-2-(2-Chloro-5-fluorophenyl)-5-hydroxy-1,3-dioxan-4-yl)-2-hydroxyethyl)-3,4-dihydroxy-2-(hydroxymethyl)tetrahydro-1H-selenophen-1-ium chloride] | 450 ± 80 | – | 410 ± 110
22 | OC[C@@H]1[C@@H](O)[C@H](O)C[Se@+]1C[C@@H](O)[C@H]1OC(c2cccc(Br)c2)OC[C@H]1O (stereo partly drawn) [20l, (1S,2R,3S,4S)-1-((2S)-2-((4S,5R)-2-(3-Bromophenyl)-5-hydroxy-1,3-dioxan-4-yl)-2-hydroxyethyl)-3,4-dihydroxy-2-(hydroxymethyl)tetrahydro-1H-selenophen-1-ium chloride] | 690 ± 50 | – | 210 ± 20
23 | OC[C@@H]1[C@@H](O)[C@H](O)C[Se@+]1C[C@@H](O)[C@H]1OC(c2cc(F)cc(Cl)c2)OC[C@H]1O (stereo partly drawn) [20h, (1S,2R,3S,4S)-1-((2S)-2-((4S,5R)-2-(3-Chloro-5-fluorophenyl)-5-hydroxy-1,3-dioxan-4-yl)-2-hydroxyethyl)-3,4-dihydroxy-2-(hydroxymethyl)tetrahydro-1H-selenophen-1-ium chloride] | 3670 ± 890 | – | 1960 ± 250
